Test results from patent publication US20090203763A1, “SUBSTITUTED BENZHYDRYLETHERS” (AUSPEX PHARMACEUTICALS, INC., priority 2008, published 2009).

Columns and labels:
[1] = In vitro human liver microsomal (HLM) stability assay; format: in vitro ADME; conditions: human liver microsomes 1 mg per mL protein, 1 μM compound, about 37° C.; as compared to the non-isotopically enriched drug
Description: Liver microsomal stability assays were conducted at 1 mg per mL liver microsome protein with an NADPH-generating system in 2% NaHCO3 (2.2 mM NADPH, 25.6 mM glucose 6-phosphate, 6 units per mL glucose 6-phosphate dehydrogenase and 3.3 mM MgCl2). Test compounds were prepared as solutions in 20% acetonitrile-water and added to the assay mixture (final assay concentration 1 μM) and incubated at about 37° C. Final concentration of acetonitrile in the assay should be <1%. Aliquots (50 μL) were taken out at times 0, 0.25, […], and 1 hours, and diluted with ice cold acetonitrile (200 μL) to stop the reactions. Samples were centrifuged at 12,000 RPM for about 10 min to precipitate proteins. Supernatants were transferred to micro centrifuge tubes and stored for LC/MS/MS analysis of the degradation half-life of the test compounds.
Results of In Vitro Human Liver Microsomal (HLM) Stability Assay—Percent Change in Degradation Half-Life

[2] = after both one-time and repeated (daily) administration; Verster et al. 2004; cited from earlier work

Percent Change in Degradation Half-Life, 0%-50% [1] | Percent Change in Degradation Half-Life, −25%-0% [1] | Structure (SMILES) | also measured
+ (0%-50%) | – | O=C(O)/C=C/C(=O)O.[2H]C([2H])(O[C@](C)(c1ccccc1)c1ccc(Cl)cc1)C([2H])([2H])[C@H]1CCCN1C [Example 3, (R)-2-[2-[(R)-1-(4-Chlorophenyl)-1-phenylethoxy]ethyl-2,2-d4]-1-methyl-pyrrolidine fumarate] | –
– | + (−25%-0%) | O=C(O)/C=C/C(=O)O.[2H]C([2H])(C[C@H]1CCCN1C([2H])([2H])[2H])O[C@](C)(c1ccccc1)c1ccc(Cl)cc1 [Example 5, (R)-2-[2-[(R)-1-(4-Chlorophenyl)-1-phenylethoxy]ethyl-2,2-d2]-1-methyl-d3-pyrrolidine fumarate] | –
+ (0%-50%) | – | O=C(O)/C=C/C(=O)O.[2H]C([2H])(C[C@H]1CCCN1C)O[C@](C)(c1ccccc1)c1ccc(Cl)cc1 [Example 2, (R)-2-[2-[(R)-1-(4-Chlorophenyl)-1-phenylethoxy]ethyl-2,2-d2]-1-methylpyrrolidine fumarate] | –
– | – | CN1CCC[C@@H]1CCO[C@](C)(c1ccccc1)c1ccc(Cl)cc1 [Clemastine, 2-[2-[1-(4-chlorophenyl)-1-phenyl-ethoxy]ethyl]-1-methyl-pyrrolidine] | effect on driving performance [2]: significantly impair driving performance
– | + (−25%-0%) | O=C(O)/C=C/C(=O)O.[2H]C([2H])([2H])N1CCC[C@@H]1CCO[C@](C)(c1ccccc1)c1ccc(Cl)cc1 [Example 4, (R)-2-[2-[(R)-1-(4-Chlorophenyl)-1-phenylethoxy]ethyl]-1-methyl-d3-pyrrolidine fumarate] | –
+ (0%-50%) | – | O=C(O)/C=C/C(=O)O.[2H]C([2H])([2H])N1CCC[C@@H]1C([2H])([2H])C([2H])([2H])O[C@](C)(c1ccccc1)c1ccc(Cl)cc1 [Example 6, (R)-2-[2-[(R)-1-(4-Chlorophenyl)-1-phenylethoxy]ethyl-1,1,2,2-d4]-1-methyl-d3-pyrrolidine fumarate] | –
